Assays:
Type in all cases: in vivo
[1] = system: SPF grade male C57BL/6J mice; test: Mouse forced swimming test (Embodiment 9); conditions: 3.33 mg/kg by gavage daily for one month, 5 minutes formal test, x ± SE
Experimental: (§1) 72 SPF grade male C57BL/6J mice which are 20±2 g in weight are selected. 6 mice are kept in each cage, free to forage and drink, and kept in a room with controlled light, temperature and humidity: the temperature is 21° C.±2° C., the humidity is 50%±10%, and the light and dark cycle is 12 hours/12 hours (light on at 20:00, light off at 8:00). All animal experiments are carried out in accordance with the guidelines on laboratory animal welfare and use issued by NIH.
(§2) After arrival, the mice are allowed to acclimate for one week before entering experiments.
(§3) The mice in the normal group are given the same volume of purified water by gavage, and the gavage doses for the mice in other groups are shown in the result tables. The mice are treated by gavage at a fixed time (9:00) every morning with a gavage volume of 0.1 mL·10 g^−1, and the administration is lasted for one month. A behavioral test is performed 1 hour after the last gavage.
When forced to swim, all the animals are respectively put in a plexiglass cylinder with a water temperature of 23° C.±1° C. and a water depth of 20 cm. After 15 minutes, the animals are transferred to a dry environment with a temperature of 30° C. and kept for 30 minutes (pretest). After 24 hours, the mice are put into the plexiglass cylinder again and kept for 5 minutes (formal test). A video camera is used during the test for recording. […]

[2] = system: SPF grade male C57BL/6J mice; test: Mouse tail suspension test; conditions: 3.33 mg/kg by gavage daily for one month, last 4 minutes of 6 minutes, x ± SE
Experimental: as §1, §2, §3
In the tail suspension test, medical tape is used to suspend each mouse at ⅓ of the tail tip on a tail suspension device. The mice are suspended vertically with the heads facing camera lens, and are about 30 cm above the ground. The immobility time of each group of mice in the tail suspension test is recorded by a video camera for 6 minutes, and the tail suspension immobility time of the mice is calculated according to the last 4 minutes. […]

[3] = system: SPF grade male C57BL/6J mice; test: Mouse open field test; conditions: 3.33 mg/kg by gavage daily for one month; 6 minutes; x ± SE
Experimental: The test is performed in an open field box with a length of 50 cm, a width of 50 cm, and a depth of 50 cm. The bottom surface of the open field box is equally divided into 9 squares, the area right in the middle is a central area, and the remaining areas are peripheral areas. The bottom and four sides of the open field box are all white. The test is performed in a quiet and weak red light environment. […] The total movement distance of the mice, the movement distance in the central area and the number of standing-uprights are recorded.

CNCCC(Oc1ccc(C(F)(F)F)cc1)c1ccccc1 (stereo not drawn) [Fluoxetine, fluoxetine]
Number of floating immobilities [1]: 54.64 ± 2.704 | Number of floating immobilities ([1]; listed as fluoxetine): significantly lower | Tail suspension immobility time [2]: 59.62 ± 6.270 s | Tail suspension immobility time ([2]; listed as fluoxetine): significantly shorter | Number of standing-uprights [3]: 29.20 ± 2.133 | Total movement distance [3]: 18435 ± 950.6 mm

— patent US11642388B2, “Antidepressant compound preparation and preparation method thereof” (Chenland Nutritionals Inc., priority 2020, dated 2023)
